Results published in ChEMBL document CHEMBL5729023, “Tricyclic compounds for use in treatment of proliferative disorders” (2022).

Each compound was assayed against PRMT5/MEP50 complex (Homo sapiens, UniProt O14744) (assay: Chemiluminescent Assay: A PRMT5 chemiluminescent assay was used to measure the […] activity of PRMT5. Biotinylated histone peptides were synthesized and attached to 384-well plates. Compound serial dilutions were performed and added to the assay plate. Histone H4 monomethyl R3 antibody was obtained from Abcam. A master mix for each well was prepared and human PRMT5/MEP50 (expressed in HEK293 cells) diluted in assay buffer to a concentration of 5 ng/μL. The reaction was incubated and slowly rotated for 60 minutes at the point of PRMT5/MEP50 addition. The supernatant from the wells was removed and blocking buffer was added to each well and rotated for 10 minutes. The primary antibody was diluted and added to every well for 60 minutes, before it was removed and the wells washed. The horse radish peroxidase (HRP)-coupled secondary antibody was diluted and added to each well with an incubation time of 30 minutes. The HRP chemiluminescent substrate was added to every well. The plate was read on a Flourstar Omega BMG Labtech instrument (Ortenberg, Germany) and the analysis of IC50 was performed using the Flourstar Omega BMG Labtech software.).
PRMT5/MEP50 complex, sequence (O14744 whole entry): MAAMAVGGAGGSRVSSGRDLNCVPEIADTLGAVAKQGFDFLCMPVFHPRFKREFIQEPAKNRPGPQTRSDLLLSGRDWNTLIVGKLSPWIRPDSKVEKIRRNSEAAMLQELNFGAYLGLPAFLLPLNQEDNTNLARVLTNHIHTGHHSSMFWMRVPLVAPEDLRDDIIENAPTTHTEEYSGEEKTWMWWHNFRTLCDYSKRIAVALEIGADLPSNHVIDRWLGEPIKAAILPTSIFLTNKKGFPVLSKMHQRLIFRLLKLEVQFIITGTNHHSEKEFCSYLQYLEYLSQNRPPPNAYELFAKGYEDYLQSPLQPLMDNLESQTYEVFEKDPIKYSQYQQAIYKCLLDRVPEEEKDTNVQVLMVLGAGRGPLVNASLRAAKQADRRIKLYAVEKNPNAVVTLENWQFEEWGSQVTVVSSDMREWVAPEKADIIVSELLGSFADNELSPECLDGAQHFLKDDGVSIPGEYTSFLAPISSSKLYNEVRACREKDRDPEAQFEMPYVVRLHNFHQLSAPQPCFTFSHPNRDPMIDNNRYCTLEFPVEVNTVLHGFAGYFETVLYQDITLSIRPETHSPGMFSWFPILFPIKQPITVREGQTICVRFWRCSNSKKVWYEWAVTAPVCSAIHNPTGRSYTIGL
PRMT5/MEP50 complex, sequence (Q9BQA1 whole entry, further chain): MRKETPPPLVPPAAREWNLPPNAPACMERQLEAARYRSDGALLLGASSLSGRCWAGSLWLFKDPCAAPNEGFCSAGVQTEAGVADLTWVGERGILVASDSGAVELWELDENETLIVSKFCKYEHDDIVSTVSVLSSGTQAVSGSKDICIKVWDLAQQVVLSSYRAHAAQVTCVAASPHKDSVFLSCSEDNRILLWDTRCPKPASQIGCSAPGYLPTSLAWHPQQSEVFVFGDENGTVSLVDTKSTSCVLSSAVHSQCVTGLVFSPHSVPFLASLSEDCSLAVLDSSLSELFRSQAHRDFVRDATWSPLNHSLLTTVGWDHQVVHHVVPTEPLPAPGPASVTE
Assay type: biochemical

Row | SMILES | IC50
1 | O=C(NCC(O)CN1CCc2[nH]c3ccccc3c2C1)c1ccc(C(=O)N2C3CCC2COC3)cc1 (centres undefined) | 1730 nM
2 | Cn1c2c(c3ccccc31)CN(CC(O)CNC(=O)c1ccc(C(=O)N3C4CCC3COC4)cc1)CC2 (centres undefined) | 3340 nM
3 | CN1CCN(c2nc(NC3CCC3)cc(C(=O)NCC(O)CN3CCc4[nH]c5ccccc5c4C3)n2)CC1 (centres undefined) | 528 nM
4 | O=C(NCC(O)CN1CCc2[nH]c3ccccc3c2C1)c1cc(NC2CCC2)ncn1 (centres undefined) | 1690 nM
